Key:
[1] = Inhibition of mouse GAT3 expressed in HEK293 cells assessed as reduction in [3H]GABA uptake preincubated for 25 mins followed by [3H]GABA addition and measured after 4 mins by liquid scintillation counting method
[2] = Inhibition of mouse GAT2 expressed in HEK293 cells assessed as reduction in [3H]GABA uptake preincubated for 25 mins followed by [3H]GABA addition and measured after 4 mins by liquid scintillation counting method

Work on `O=C(O)C1CCCN(C/C=C/C(c2ccc3c(c2)OCO3)(c2ccc3c(c2)OCO3)c2ccc3c(c2)OCO3)C1` (stereo not given) yielded an IC50 [1] of 24.5 µM and an IC50 [2] of 89.1 µM.

For `Cc1ccc(C(/C=C/CN2CCCC(C(=O)O)C2)(c2ccc(C)cc2)c2ccc(C)cc2)cc1` (stereo not given), the IC50 [1] was 15.8 µM and the IC50 [2] was 14.1 µM.

Molecule `COc1ccc(C(/C=C/CN2CCCC(C(=O)O)C2)(c2ccc(OC)cc2)c2ccc3c(c2)OCO3)cc1` (stereo not given) has an IC50 [1] of 10.2 µM.

Work on `COc1ccc(C(/C=C/CN2CCCC(C(=O)O)C2)(c2ccc(OC)cc2)c2ccsc2)cc1` (stereo not given) yielded an IC50 [1] of 42.7 µM.

`COc1ccc(C(/C=C/CN2CCCC(C(=O)O)C2)(c2ccc(OC)cc2)c2ccc3sccc3c2)cc1` (stereo not given) showed an IC50 [1] of 20 µM and an IC50 [2] of 25.1 µM.

Work on `O=C(O)C1CCCN(C/C=C/C(c2ccc3occc3c2)(c2ccc3occc3c2)c2ccc3occc3c2)C1` (stereo not given) yielded an IC50 [1] of 5.5 µM and an IC50 [2] of 9.55 µM.

`COc1ccc(C(C/C=C/CN2CCCC(C(=O)O)C2)(c2ccc(OC)cc2)c2ccc(OC)cc2)cc1` (stereo not given) showed an IC50 [1] of 85.1 µM.

Molecule `COc1ccc(C(/C=C/CN2CCC[C@H](C(=O)O)C2)(c2ccc(OC)cc2)c2ccc3sccc3c2)cc1` has an IC50 [2] of 23.4 µM.

`O=C(O)C1CCCN(C/C=C/C(c2ccc3sccc3c2)(c2ccc3sccc3c2)c2ccc3sccc3c2)C1` (stereo not given) showed an IC50 [1] of 52.5 µM and an IC50 [2] of 33.9 µM.

In the case of `COc1ccc(C(/C=C/CN2CCCC(C(=O)O)C2)c2ccc(OC)cc2)cc1` (stereo not given), the IC50 [1] is reported as 53.7 µM.
